Assay results reported in paper PMC11954892, “β-Carotene alleviates substrate inhibition caused by asymmetric cooperativity” (Nature Communications, 2025).

Assays:
NbUGT72AY1 [1] = target: T1, NbUGT72AY1 (Nicotiana benthamiana, UniProt A0A8K1ZRH3); experiment: X-ray co-crystal structure (ternary complex with scopoletin); type: binding
T1 sequence (A0A8K1ZRH3 1-477): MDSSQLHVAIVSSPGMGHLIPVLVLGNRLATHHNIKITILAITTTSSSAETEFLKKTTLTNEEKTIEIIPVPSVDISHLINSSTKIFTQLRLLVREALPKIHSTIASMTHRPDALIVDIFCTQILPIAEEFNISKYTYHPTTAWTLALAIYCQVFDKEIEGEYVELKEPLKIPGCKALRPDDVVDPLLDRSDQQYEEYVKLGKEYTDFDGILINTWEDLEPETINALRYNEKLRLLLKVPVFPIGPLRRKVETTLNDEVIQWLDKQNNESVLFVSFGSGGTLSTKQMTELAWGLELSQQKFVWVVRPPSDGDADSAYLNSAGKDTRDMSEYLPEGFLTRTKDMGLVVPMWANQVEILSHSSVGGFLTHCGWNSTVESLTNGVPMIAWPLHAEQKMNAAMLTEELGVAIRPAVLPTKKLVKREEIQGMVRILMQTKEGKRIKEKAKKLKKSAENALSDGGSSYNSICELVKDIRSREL

NbUGT72AY1 [2] = target: T1, NbUGT72AY1; experiment: UDP-Glo glucosyltransferase assay, purified enzyme (reactivation of substrate-inhibited enzyme); type: biochemical; design: N-terminal GST tag
NbUGT72AY1 [3] = target: T1, NbUGT72AY1; experiment: HDX-MS; inhibition of UDPG glucohydrolase and relief of substrate inhibition (UDP-Glo, purified enzyme); type: binding
NbUGT72AY1 [4] = target: T1, NbUGT72AY1; experiment: ITC ([…] stoichiometry); co-crystal structures; HDX-MS; enzyme kinetics; type: binding
NbUGT72AY1 [5] = target: T1, NbUGT72AY1; experiment: HDX-MS; CD; inhibition of UDPG glucohydrolase and relief of substrate inhibition (UDP-Glo, purified enzyme); type: binding

O=c1ccn([C@@H]2O[C@H](COP(=O)(O)OP(=O)(O)O[C@H]3O[C@H](CO)[C@@H](O)[C@H](O)[C@H]3F)[C@@H](O)[C@H]2O)c(=O)[nH]1 [UDP2FG]
X-ray co-crystal structure (ternary complex with scopoletin) (NbUGT72AY1 [1]): ternary complex V (NbUGT72AY1•scopoletin/UDP2FG: 9J9K) most of the protein residues are visible in the electron density maps

CC(C)=CCC/C(C)=C/C=C/C(C)=C/C=C/C(C)=C/C=C/C=C(C)/C=C/C=C(C)/C=C/C=C(\C)CCC=C(C)C [lycopene]
UDP-Glo glucosyltransferase assay, purified enzyme (reactivation of substrate-in) (NbUGT72AY1 [2]): Even acyclic lycopene shows a concentration-dependent reactivation of the substrate-inhibited enzyme.

CC1=C(/C=C/C(C)=C/C=C/C(C)=C/CO)C(C)(C)CCC1 [retinol]
HDX-MS; inhibition of UDPG glucohydrolase and relief of substrate inhibition (UD) (NbUGT72AY1 [3]): concentration-dependent reactivation of the substrate-inhibited enzyme by β-carotene, β-apo-8’-carotenal, and retinol was detected

COc1cc2ccc(=O)oc2cc1O [scopoletin]
Kd (NbUGT72AY1 [4]): 4.5 ± 1.1 µM

CC1=C(/C=C/C(C)=C/C=C/C(C)=C/C=C/C=C(C)/C=C/C=C(\C)C=O)C(C)(C)CCC1 [β-apo-8’-carotenal]
HDX-MS; inhibition of UDPG glucohydrolase and relief of substrate inhibition (UD) (NbUGT72AY1 [3]): concentration-dependent reactivation of the substrate-inhibited enzyme by β-carotene, β-apo-8’-carotenal, and retinol was detected

CC1=C(/C=C/C(C)=C/C=C/C(C)=C/C=C/C=C(C)/C=C/C=C(C)/C=C/C2=C(C)CCCC2(C)C)C(C)(C)CCC1 [β-carotene]
HDX-MS; CD; inhibition of UDPG glucohydrolase and relief of substrate inhibition (NbUGT72AY1 [5]): with β-carotene being the most potent in suppressing glucohydrolase activity in accordance with its strong inhibition of SI
